Results taken from PubChem BioAssay (NCI).
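96-well plates; 48 h exposure; 5 concentrations. Endpoints by linear interpolation between flanking doses. Not reached: highest tested concentration assigned. TGI marks complete inhibition of growth.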

Tests used:
Test in all cases: NCI tumour cell line growth inhibition, 48 h
A498 renal = system: A498 renal
ACHN renal = system: ACHN renal
COLO 205 colon = system: COLO 205 colon
EKVX NSCLC = system: EKVX NSCLC
HCT-116 colon = system: HCT-116 colon
K-562 leukemia = system: K-562 leukemia
KM12 colon = system: KM12 colon
MALME-3M melanoma = system: MALME-3M melanoma
MCF7 breast = system: MCF7 breast
MOLT-4 leukemia = system: MOLT-4 leukemia
NCI/ADR-RES ovarian = system: NCI/ADR-RES ovarian
OVCAR-8 ovarian = system: OVCAR-8 ovarian
SF-295 CNS = system: SF-295 CNS
SF-539 CNS = system: SF-539 CNS
SK-MEL-2 melanoma = system: SK-MEL-2 melanoma
SW-620 colon = system: SW-620 colon
UACC-62 melanoma = system: UACC-62 melanoma
UO-31 renal = system: UO-31 renal
HCC-2998 colon = system: HCC-2998 colon
NCI-H226 lung = system: NCI-H226 lung

| Compound | TGI (A498 renal) | TGI (ACHN renal) | TGI (COLO 205 colon) | TGI (EKVX NSCLC) | TGI (HCT-116 colon) | TGI (K-562 leukemia) | TGI (KM12 colon) | TGI (MALME-3M melanoma) | TGI (MCF7 breast) | TGI (MOLT-4 leukemia) | TGI (NCI/ADR-RES ovarian) | TGI (OVCAR-8 ovarian) | TGI (SF-295 CNS) | TGI (SF-539 CNS) | TGI (SK-MEL-2 melanoma) | TGI (SW-620 colon) | TGI (UACC-62 melanoma) | TGI (UO-31 renal) | TGI (HCC-2998 colon) | TGI (NCI-H226 lung) |
| --- | --- | --- | --- | --- | --- | --- | --- | --- | --- | --- | --- | --- | --- | --- | --- | --- | --- | --- | --- | --- |
| O=P(O)(O)CCP(=O)(O)O | > 100 µM | > 100 µM | > 100 µM | > 100 µM | > 100 µM | > 100 µM | > 100 µM | > 100 µM | > 100 µM | > 100 µM | > 100 µM | > 100 µM | > 100 µM | > 100 µM | > 100 µM | > 100 µM | > 100 µM | > 100 µM |  |  |
| NC(CCCCCP(=O)(c1ccccc1)C1C=CC=CC1)C(=O)O (configuration not stated) |  | > 100 µM | > 100 µM | > 100 µM | > 100 µM | > 100 µM | > 100 µM |  | > 100 µM | > 100 µM | > 100 µM | > 100 µM | > 100 µM | > 100 µM | > 100 µM | > 100 µM | > 100 µM | > 100 µM |  |  |
| CCCC(=O)OCC1OC(n2ccc(N)nc2=O)C(OC(=O)CCC)C1OC(=O)CCC (configuration not stated) | > 100 µM |  | > 100 µM | 16.8 µM | > 100 µM | > 100 µM | > 100 µM | > 100 µM | > 100 µM | 66.9 µM | > 100 µM | > 100 µM | > 100 µM | > 100 µM | > 100 µM | > 100 µM | > 100 µM | > 100 µM | > 100 µM | > 100 µM |
| CC(=O)OC1/C=C(\C)C(OC(C)=O)C/C=C(/C)CCC2C(/C=C/C1=O)C2(C)C (configuration not stated) | > 100 µM | > 100 µM | > 100 µM | > 100 µM | > 100 µM |  | > 100 µM | > 100 µM |  | > 100 µM |  | > 100 µM | > 100 µM | > 100 µM | > 100 µM | > 100 µM | > 100 µM | > 100 µM | > 100 µM | > 100 µM |
| O=c1sc2ccccc2n1CC1CS1 (configuration not stated) |  | > 100 µM | > 100 µM | > 100 µM | > 100 µM | > 100 µM | > 100 µM | > 100 µM |  | > 100 µM |  | > 100 µM | > 100 µM | > 100 µM | > 100 µM | > 100 µM | > 100 µM | > 100 µM | > 100 µM | > 100 µM |
| CCN(CC)CCNc1ccc2nnn3c4ccc(OCCN(CC)CC)cc4c(=O)c1c23 | > 100 µM | > 100 µM | > 100 µM | > 100 µM | > 100 µM | > 100 µM | 84.5 µM |  | > 100 µM | 39 µM | > 100 µM | > 100 µM | > 100 µM | > 100 µM | > 100 µM | > 100 µM | > 100 µM | > 100 µM | > 100 µM |  |
| COc1ccc(/C=C2\CCNC2=O)cc1 | > 100 µM |  | > 100 µM | > 80.9 µM | > 100 µM | > 100 µM | > 100 µM | > 100 µM | > 100 µM | > 100 µM | > 100 µM | > 100 µM | > 100 µM | > 100 µM | > 100 µM | > 100 µM | > 100 µM | > 100 µM | > 100 µM | > 100 µM |
| C=CCc1c(O)c2c(c3oc(=O)cc(C)c13)CC(C)O2 (configuration not stated) |  | > 100 µM |  | > 100 µM | > 100 µM | > 100 µM |  | > 100 µM |  | > 100 µM |  | > 100 µM | > 100 µM | > 100 µM | > 100 µM | > 100 µM | > 100 µM | > 100 µM | > 100 µM | > 100 µM |
| CC(C)Cc1ccc(C(C)C(=O)N2CCN(/C=C/c3ccccc3)CC2)cc1 (configuration not stated) | 31.8 µM |  | 29.5 µM | 35 µM | 26.3 µM | 29.3 µM | 31.7 µM | 30.4 µM | 33.7 µM | 23.4 µM | 28.2 µM | 29.1 µM | 32.2 µM | 28.9 µM | 27 µM | 30.3 µM | 26.3 µM | 24 µM | 31.8 µM | 18.1 µM |
| CCOc1ncn(-c2ccc(NC(=S)Nc3ncccn3)cc2)n1 |  |  | 81.7 µM | > 100 µM | > 100 µM | > 100 µM | > 100 µM |  | > 100 µM | 57.3 µM |  | 56 µM | > 100 µM | 33.5 µM |  | > 100 µM | 91 µM | 36 µM | 46 µM |  |
